This note sets out measurements from US8492410B2, “Pyridine derivatives as sphingosine 1-phosphate (S1P) receptor modulators” (Allergan, Inc., priority 2010, dated 2013).

Structures are written as SMILES.

The assay deals with T1, human S1P1 receptor (Homo sapiens, UniProt P21453).
T1 construct: expressed in transfected cells; membranes were used
As to the kind of experiment: GTP γ35S binding assay for S1P1 activity. Type of assay: biochemical. To be noted: activity potency from GTP γ35S binding; 5 μg membrane protein, 30 min at 25° C., test compounds 0.08 to 5,000 nM. The protocol:
Compounds were synthesized and tested for S1P1 activity using the GTP γ^35S binding assay. These compounds may be assessed for their ability to activate or block activation of the human S1P1 receptor in cells stably expressing the S1P1 receptor.
GTP γ^35S binding was measured in the medium containing (mM) HEPES 25, pH 7.4, MgCl2 10, NaCl 100, dithitothreitol 0.5, digitonin 0.003%, 0.2 nM GTP γ^35S, and 5 μg membrane protein in a volume of 150 μl. Test compounds were included in the concentration range from 0.08 to 5,000 nM unless indicated otherwise. Membranes were incubated with 100 μM 5′-adenylylimmidodiphosphate for 30 min, and subsequently with 10 μM GDP for 10 min on ice. Drug solutions and membrane were mixed, and then reactions were initiated by adding GTP γ^35S and continued for 30 min at 25° C. Reaction mixtures were filtered over Whatman GF/B filters under vacuum, and washed three times with 3 mL of ice-cold buffer (HEPES 25, pH7.4, MgCl2 10 and NaCl 100). Filters were dried and mixed with scintillant, and counted for ^35S activity using a 8-counter. Agonist-induced GTP γ^35S binding was obtained by subtracting that in the absence of agonist. Binding data were analyzed using a non-linear regression method. In case of antagonist assay, the reaction mixture contained 10 nM S1P in the presence of test antagonist at concentrations ranging from 0.08 to 5000 nM.
In general terms: GTPγS resists hydrolysis and so accumulates on activated G proteins.

For orientation: EC50 means the midpoint of the concentration-response curve.

T1 sequence (P21453 whole entry): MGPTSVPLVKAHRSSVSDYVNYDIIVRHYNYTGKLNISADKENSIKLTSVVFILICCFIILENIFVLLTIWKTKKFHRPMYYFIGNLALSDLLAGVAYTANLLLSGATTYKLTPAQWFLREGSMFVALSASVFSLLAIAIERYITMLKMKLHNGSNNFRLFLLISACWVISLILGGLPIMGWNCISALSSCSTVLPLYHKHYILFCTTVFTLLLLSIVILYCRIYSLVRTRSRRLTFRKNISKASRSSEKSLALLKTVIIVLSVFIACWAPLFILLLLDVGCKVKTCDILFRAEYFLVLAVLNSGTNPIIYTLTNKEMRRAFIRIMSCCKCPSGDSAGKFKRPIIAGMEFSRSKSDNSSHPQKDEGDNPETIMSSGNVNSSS

On to `CNc1ncccc1-c1noc(C(Cc2ccc(C)cc2)c2cccc(Cl)c2)n1` (stereo not drawn) [3-{5-[1-(3-chlorophenyl)-2-(4-methylphenyl)ethyl]-1,2,4-oxadiazol-3-yl}-N-methylpyridin-2-amine], for which the EC50 stood at 78.3 nM.

In the case of `CNc1ncccc1-c1noc(C(Cc2ccc(C)c(C)c2)c2ccc(Cl)cc2)n1` (stereo not drawn) [Compound 10, 3-{5-[2-(3,4-dimethylphenyl)-1-(4-chlorophenyl)ethyl]-1,2,4-oxadiazol-3-yl}-N-methylpyridin-2-amine], the response was half-maximal at 470 nM (EC50).

Turning to `CNc1ncccc1-c1noc(C(Cc2ccc(C)c(C)c2)c2cccs2)n1` (stereo not drawn) [Compound 27, 3-(5-(2-(3,4-dimethylphenyl)-1-(thiophen-2-yl)ethyl)-1,2,4-oxadiazol-3-yl)-N-methylpyridin-2-amine], the EC50 was 524 nM.

In the case of `CNc1ncccc1-c1noc(C(Cc2ccc(C)c(C)c2)c2ccc(Cl)nc2)n1` (stereo not drawn) [3-{5-[1-(6-chloropyridin-3-yl)-2-(3,4-dimethylphenyl)ethyl]-1,2,4-oxadiazol-3-yl}-N-methylpyridin-2-amine], the EC50 worked out at 274 nM.

In turn, `CNc1ncccc1-c1noc(C(Cc2ccccc2)c2ccccc2)n1` (stereo not drawn) [Compound 24, 3-(5-(1,2-diphenylethyl)-1,2,4-oxadiazol-3-yl)-N-methylpyridin-2-amine] gave an EC50 of 1240 nM. This EC50 lies about 4.5-fold higher than the previous one.

Take `CNc1ncccc1-c1noc(C(Cc2ccc(C)c(C)c2)c2cccc(Br)c2)n1` (stereo not drawn) [Compound 3, 3-{5-[2-(3,4-dimethylphenyl)-1-(3-bromophenyl)ethyl]-1,2,4-oxadiazol-3-yl}-N-methylpyridin-2-amine]: the EC50 was found to be 50.6 nM.

Regarding `CNc1ncccc1-c1noc(C(Cc2ccc(Cl)c(Cl)c2)c2ccc(Cl)cc2)n1` (stereo not drawn) [3-{5-[1-(4-chlorophenyl)-2-(3,4-dichlorophenyl)ethyl]-1,2,4-oxadiazol-3-yl}-N-methylpyridin-2-amine], the EC50 was 2020 nM.

As to `CNc1ncccc1-c1noc(C(Cc2ccc(C)c(C)c2)c2cccc(F)c2)n1` (stereo not drawn) [3-{5-[2-(3,4-dimethylphenyl)-1-(3-fluorophenyl)ethyl]-1,2,4-oxadiazol-3-yl}-N-methylpyridin-2-amine], the EC50 came to 35.7 nM.

For the molecule `CNc1ncccc1-c1noc(C(Cc2cc(C)cc(C)c2)c2ccc(Cl)nc2)n1` (stereo not drawn) [3-{5-[1-(6-chloropyridin-3-yl)-2-(3,5-dimethylphenyl)ethyl]-1,2,4-oxadiazol-3-yl}-N-methylpyridin-2-amine], a half-maximal response (EC50) required 2760 nM.

Take `CNc1ncccc1-c1noc(C(CC2CCCCC2)c2cccc(Cl)c2)n1` (stereo not drawn) [3-{5-[1-(3-chlorophenyl)-2-cyclohexylethyl]-1,2,4-oxadiazol-3-yl}-N-methylpyridin-2-amine]: the EC50 amounted to 348 nM. This EC50 lies about 7.9-fold lower than the previous one.

As for `CNc1ncccc1-c1noc(C(Cc2ccc(C)c(C)c2)c2cc(C)cc(C)c2)n1` (stereo not drawn) [Compound 25, 3-(5-(2-(3,4-dimethylphenyl)-1-(3,5-dimethylphenyl)ethyl)-1,2,4-oxadiazol-3-yl)-N-methylpyridin-2-amine], the EC50 stood at 161 nM. Against the preceding molecule, the EC50 is about 2.2-fold lower.

As for `CCc1cccc(C(Cc2ccc(C)c(C)c2)c2nc(-c3cccnc3NC)no2)c1` (stereo not drawn) [3-{5-[2-(3,4-dimethylphenyl)-1-(3-ethylphenyl)ethyl]-1,2,4-oxadiazol-3-yl}-N-methylpyridin-2-amine], the EC50 amounted to 61.8 nM. Compared with the last molecule, the EC50 is about 2.6-fold lower.

`CNc1ncccc1-c1noc(C(Cc2ccc(C)c(C)c2)c2ccc(OC)cc2)n1` (stereo not drawn) [3-{5-[2-(3,4-dimethylphenyl)-1-(4-methoxyphenyl)ethyl]-1,2,4-oxadiazol-3-yl}-N-methylpyridin-2-amine] gave an EC50 of 1330 nM.

On to `CNc1ncccc1-c1noc(C(Cc2ccc(CC(C)C)cc2)c2cccc(Cl)c2)n1` (stereo not drawn) [3-{5-[1-(3-chlorophenyl)-2-(4-isobutylphenyl)ethyl]-1,2,4-oxadiazol-3-yl}-N-methylpyridin-2-amine], for which the EC50 was determined as 2090 nM. Against the preceding molecule, the EC50 is about 1.6-fold higher.

The molecule `CNc1ncccc1-c1noc(C(Cc2ccc(C)c(C)c2)c2cccc(Cl)c2)n1` (stereo not drawn) [Compound 2, 3-{5-[2-(3,4-dimethylphenyl)-1-(3-chlorophenyl)ethyl]-1,2,4-oxadiazol-3-yl}-N-methylpyridin-2-amine] displayed an EC50 of 66.4 nM.

Consider `CNc1ncccc1-c1noc(C(Cc2ccc(C)c(C)c2)c2ccc(C(F)(F)F)cc2)n1` (stereo not drawn) [3-(5-{2-(3,4-dimethylphenyl)-1-[4-(trifluoromethyl)phenyl]ethyl}-1,2,4-oxadiazol-3-yl)-N-methylpyridin-2-amine], for which the EC50 turned out to be 2260 nM.

Consider `CNc1ncccc1-c1noc(C(Cc2ccc(C)c(C)c2)c2cccc(OC)c2)n1` (stereo not drawn) [3-{5-[2-(3,4-dimethylphenyl)-1-(3-methoxyphenyl)ethyl]-1,2,4-oxadiazol-3-yl}-N-methylpyridin-2-amine], for which the EC50 was determined as 77.6 nM.

The molecule `CNc1ncccc1-c1noc(C(Cc2ccc(C)c(C)c2)c2ccsc2)n1` (stereo not drawn) [Compound 29, 3-(5-(2-(3,4-dimethylphenyl)-1-(thiophen-3-yl)ethyl)-1,2,4-oxadiazol-3-yl)-N-methylpyridin-2-amine] showed an EC50 of 296 nM.

The molecule `CNc1ncccc1-c1noc(C(Cc2ccc(C)cc2)c2ccsc2)n1` (stereo not drawn) [Compound 1, N-methyl-3-(5-(1-(thiophen-3-yl)-2-(p-tolyl)ethyl)-1,2,4-oxadiazol-3-yl)pyridin-2-amine] returned an EC50 of 533 nM.

In turn, `CNc1ncccc1-c1noc(C(Cc2ccccc2)c2ccc(Cl)cc2)n1` (stereo not drawn) [3-{5-[1-(4-chlorophenyl)-2-phenylethyl]-1,2,4-oxadiazol-3-yl}-N-methylpyridin-2-amine] yielded an EC50 of 2400 nM.

For `CNc1ncccc1-c1noc(C(Cc2ccccc2)c2cccc(Cl)c2)n1` (stereo not drawn) [3-{5-[1-(3-chlorophenyl)-2-phenylethyl]-1,2,4-oxadiazol-3-yl}-N-methylpyridin-2-amine], the EC50 came out at 112 nM.

`CNc1ncccc1-c1noc(C(Cc2ccc(C)c(C)c2)c2cccc(C(F)(F)F)c2)n1` (stereo not drawn) [3-(5-{2-(3,4-dimethylphenyl)-1-[3-(trifluoromethyl)phenyl]ethyl}-1,2,4-oxadiazol-3-yl)-N-methylpyridin-2-amine] gave an EC50 of 167 nM. The EC50 values of the last two molecules are within 1.5-fold of each other.

As for `CNc1ncccc1-c1noc(C(CC2CCCC2)c2cccc(Cl)c2)n1` (stereo not drawn) [3-{5-[1-(3-chlorophenyl)-2-cyclopentylethyl]-1,2,4-oxadiazol-3-yl}-N-methylpyridin-2-amine], a half-maximal effect (EC50) was put at 1860 nM.

With `CNc1ncccc1-c1noc(C(Cc2ccc(C)c(C)c2)c2ccccc2)n1` (stereo not drawn) [3-{5-[2-(3,4-dimethylphenyl)-1-phenylethyl]-1,2,4-oxadiazol-3-yl}-N-methylpyridin-2-amine], the EC50 came out at 912 nM. This EC50 is about 2-fold lower than that of the molecule before.

Take `CNc1ncccc1-c1noc(C(Cc2ccc(C)c(C)c2)c2cccc(C)c2)n1` (stereo not drawn) [3-{5-[2-(3,4-dimethylphenyl)-1-(3-methylphenyl)ethyl]-1,2,4-oxadiazol-3-yl}-N-methylpyridin-2-amine]: the response was half-maximal at 50.2 nM (EC50).

On to `CNc1ncccc1-c1noc(C(Cc2ccc(C)cc2)c2cccs2)n1` (stereo not drawn) [Compound 26, N-methyl-3-(5-(1-(thiophen-2-yl)-2-(p-tolyl)ethyl)-1,2,4-oxadiazol-3-yl)pyridin-2-amine], for which the EC50 was found to be 928 nM.

In the case of `CNc1ncccc1-c1noc(C(Cc2ccc(C)c(C)c2)c2cncc(Cl)c2)n1` (stereo not drawn) [3-{5-[1-(5-chloropyridin-3-yl)-2-(3,4-dimethylphenyl)ethyl]-1,2,4-oxadiazol-3-yl}-N-methylpyridin-2-amine], a half-maximal response (EC50) required 14.5 nM.

`CNc1ncccc1-c1noc(C(Cc2ccc(C)c(C)c2)c2cc(F)cc(F)c2)n1` (stereo not drawn) [Compound 23, 3-(5-(1-(3,5-difluorophenyl)-2-(3,4-dimethylphenyl)ethyl)-1,2,4-oxadiazol-3-yl)-N-methylpyridin-2-amine]: the EC50 was 12 nM.

For `CNc1ncccc1-c1noc(C(Cc2ccc(C)c(C)c2)c2cccc([N+](=O)[O-])c2)n1` (stereo not drawn) [3-{5-[2-(3,4-dimethylphenyl)-1-(3-nitrophenyl)ethyl]-1,2,4-oxadiazol-3-yl}-N-methylpyridin-2-amine], the EC50 came out at 86.4 nM.

Molecule `CNc1ncccc1-c1noc(C(Cc2cccc(C)c2)c2cccc(Cl)c2)n1` (stereo not drawn) [3-{5-[1-(3-chlorophenyl)-2-(3-methylphenyl)ethyl]-1,2,4-oxadiazol-3-yl}-N-methylpyridin-2-amine] showed an EC50 of 125 nM.
